For one assay, the system named is Candida albicans. Briefly: Susceptibility to combination of antifungal agents on disks (Example 2). In kind it is cell-based. Particulars: Candida albicans isolate; in combination with amphotericin B. The source says: (§1) The method of the present invention also may be used to test combinations of antifungal agents. In this method, more than one antifungal agent of known concentration is impregnated in each test disk.
(§2) Each disk is impregnated with a particular known concentration of at least one particular antifungal agent, except for the control disks. When the susceptibility of a fungus to combinations of antifungal agents is being tested, more than one antifungal agent is impregnated in each test disk.
(§3) The susceptibility of two other isolates to combinations of antifungal agents were tested by combining more than one antifungal agent on each test disk. A series of test disks were prepared containing various combinations of antifungal agents in various concentrations and were used in the method of the present invention. The results of this procedure are summarized in the following specific, non-limiting examples:
This is a significant reduction in amphotericin B.

Another assay relates to Candida tropicalis. Briefly: Susceptibility to combination of antifungal agents on disks (Example 3). It counts as cell-based. Particulars: in combination with amphotericin B 0.05 μg/ml.
Excerpt: as §1, §2, §3
An isolate of Candida tropicalis was initially tested for amphotericin B susceptibility of 0.5 μg/ml. When a combination of amphotericin B and tetracycline were combined on the disks used in the testing procedure according to the present invention, effective inhibition of the isolate occurred using 0.05 μg/ml of amphotericin B and 0.2 μg/ml of tetracycline.

As for `CN(C)C1C(=O)C(C(N)=O)=C(O)C2(O)C(=O)C3=C(O)c4c(O)cccc4C(C)(O)C3CC12` (centres unmarked) [tetracycline], the tetracycline susceptibility with Candida albicans was 0.1 µg/mL. The “effective inhibition of the isolate, concentration of tetracycline” value with Candida tropicalis amounted to 0.2 µg/mL.
